The numbers were not newly measured in patent US9439853B2, “Form of administration of enkephalinase inhibitor” (BIOPROJET, priority 2010, dated 2016), which cites them from elsewhere.

The conditions of this data set: for ondansetron the water phase of the suspension.

Molecules are shown by their SMILES.

Turning to `CC(=O)SCC(Cc1ccccc1)C(=O)NCC(=O)OCc1ccccc1` (centres unmarked) [Racecadotril], the solubility in water result is “insoluble in water”.

Regarding `Cc1nccn1CC1CCc2c(c3ccccc3n2C)C1=O` (centres unmarked) [ondansetron], the solubility in water result is given as “soluble in the water phase of the suspension”.
